Laboratory results reported in patent publication US11524938B2, “Aromatic sulfonamide derivatives” (Bayer Pharma Aktiengesellschaft, priority 2016, dated 2022).

Target: T1, human P2X4 (Homo sapiens, UniProt Q99571)
T1 sequence (Q99571 1-388): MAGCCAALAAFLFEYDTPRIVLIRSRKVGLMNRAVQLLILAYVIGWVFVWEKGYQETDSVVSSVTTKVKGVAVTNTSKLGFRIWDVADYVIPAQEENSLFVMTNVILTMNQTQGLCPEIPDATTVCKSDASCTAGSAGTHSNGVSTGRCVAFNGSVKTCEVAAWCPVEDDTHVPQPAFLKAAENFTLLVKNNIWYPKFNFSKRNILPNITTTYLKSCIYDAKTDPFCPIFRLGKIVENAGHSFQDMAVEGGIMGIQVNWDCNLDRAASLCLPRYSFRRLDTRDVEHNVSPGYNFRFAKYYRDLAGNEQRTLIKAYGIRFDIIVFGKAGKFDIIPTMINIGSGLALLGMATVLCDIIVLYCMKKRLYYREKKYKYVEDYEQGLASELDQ
Assay: Human P2X4 HEK Cell FLIPR Assay
Format: cell-based
Details: agonist Bz-ATP at EC80; for Emax: HEK293, HEK293 cells, percentage of maximal inhibition, read-out: Human P2X4 HEK Cells (FLIPR Assay) avg Efficacy [%]; for IC50: HEK293 cells, individual values listed where some fall outside detection range
Procedure: HEK293 cells stably expressing human P2X4 were plated in poly-D-lysine-coated 384-well plates at a seeding density of 30000 cells/well and incubated overnight. P2X4 function was assessed by measuring intracellular calcium changes using the calcium-chelating dye Fluo8-AM (Molecular Devices) on a fluorescent imaging plate reader (FLEX/FLIPR station; Molecular Devices). On the day of the assay, the medium was removed and the cells were incubated for 30 min at 37° C. and 5% CO2 in 30 μL of dye buffer (Hank's balanced salt solution, 10 mM HEPES, 1.8 mM CaCl2, 1 mM MgCl2, 2 mM probenecid, 5 mM D-glucose monohydrate, 5 μM Fluo8-AM, pH=7.4). Compounds diluted in probenecid buffer (Hank's balanced salt solution, 10 mM HEPES, 1.8 mM CaCl2, 1 mM MgCl2, 2 mM probenecid, 5 mM D-glucose monohydrate, pH=7.4) were added in a volume of 10 μL and allowed to incubate for 30 min at room temperature. The final assay DMSO concentration was 0.5%. The agonist, Bz-ATP (Tocris), was added in a volume of 10 μL at a concentration representing the EC80 value. The EC80 value of Bz-ATP was determined each assay day prior to compound profiling. The fluorescence was measured for an interval of 120 sec at 2 sec intervals. The excitation and emission wavelengths used to monitor fluorescence were 470-495 nm and 515-575 nm, respectively. The data was analyzed based on the increase in peak relative fluorescence units (RFU) compared to the basal fluorescence and the data was normalized to the agonist control. The compounds were tested in triplicates per plate and mean values were plotted in Excel XLFit to determine IC50 values, percentage of maximal inhibition and the Hill coefficients.

Row | SMILES | Emax [%] | IC50 [nM]
1 | NS(=O)(=O)c1cc(NC(=O)Cc2ccccc2Cl)ccc1-c1cnc(OC2CCC2)nc1 [Example 316, 2-(2-Chlorophenyl)-N-{4-[2-(cyclobutyloxy)pyrimidin-5-yl]-3-sulfamoylphenyl}acetamide] | 86 | 362
2 | CN(C)CCNC(=O)c1cccc(-c2ccc(NC(=O)Cc3ccccc3Cl)cc2S(N)(=O)=O)c1 [Example 364, 4′-{[(2-Chlorophenyl)acetyl]amino}-N-[2-(dimethylamino)ethyl]-2′-sulfamoylbiphenyl-3-carboxamide] | 77 | 715
3 | NS(=O)(=O)c1cc(NC(=O)Cc2ccccc2Cl)ccc1-c1cnc(C2CC2)o1 [Example 439, 2-(2-Chlorophenyl)-N-[4-(2-cyclopropyl-1,3-oxazol-5-yl)-3-sulfamoylphenyl]acetamide] | 94 | 4
4 | NS(=O)(=O)c1cc(NC(=O)C(F)(F)c2ccccc2Cl)ccc1-n1cc(Cl)cn1 [Example 109, 2-(2-Chlorophenyl)-N-[4-(4-chloro-1H-pyrazol-1-yl)-3-sulfamoylphenyl]-2,2-difluoroacetamide] | 86 | 655
5 | N#Cc1cnn(-c2ccc(NC(=O)Cc3ccccc3OC(F)F)cc2S(N)(=O)=O)c1 [Example 203, N-[4-(4-Cyano-1H-pyrazol-1-yl)-3-sulfamoylphenyl]-2-[2-(difluoromethoxy)phenyl]-acetamide] | 86 | 99
6 | COc1ccccc1CC(=O)Nc1ccc(-c2cnn(C(F)F)c2)c(S(N)(=O)=O)c1 [Example 226, N-{4-[1-(Difluoromethyl)-1H-pyrazol-4-yl]-3-sulfamoylphenyl}-2-(2-methoxyphenyl)-acetamide] | 104 | 111
7 | Cc1nc(Cl)ncc1-c1ccc(NC(=O)Cc2ccccc2Cl)cc1S(N)(=O)=O [Example 317, N-[4-(2-Chloro-4-methylpyrimidin-5-yl)-3-sulfamoylphenyl]-2-(2-chlorophenyl)acetamide] | 68 | 1210
8 | NS(=O)(=O)c1cc(NC(=O)Cc2ccccc2Cl)ccc1-n1cc(C(=O)N2CCCC2)cn1 [Example 442, 2-(2-Chlorophenyl)-N-{4-[4-(pyrrolidin-1-ylcarbonyl)-1H-pyrazol-1-yl]-3-sulfamoylphenyl}acetamide] | 89 | 181
9 | CC(C)(O)c1nc(-c2ccc(NC(=O)Cc3ccccc3Cl)cc2S(N)(=O)=O)cs1 [Example 436, 2-(2-Chlorophenyl)-N-{4-[2-(2-hydroxypropan-2-yl)-1,3-thiazol-4-yl]-3-sulfamoylphenyl}acetamide] | 56 | 12500
10 | N#Cc1cnn(-c2cc(C(F)(F)F)c(NC(=O)Cc3cc(C(F)(F)F)ccc3Cl)cc2S(N)(=O)=O)c1 [Example 486, 2-[2-Chloro-5-(trifluoromethyl)phenyl]-N-[4-(4-cyano-1H-pyrazol-1-yl)-5-sulfamoyl-2-(trifluoromethyl)phenyl]acetamide] | 71 | 7340
11 | N#Cc1cnn(-c2ccc(NC(=O)Cc3ccc(Cl)cc3)cc2S(N)(=O)=O)c1 [Example 181, 2-(4-Chlorophenyl)-N-[4-(4-cyano-1H-pyrazol-1-yl)-3-sulfamoylphenyl]acetamide] | 59 | 179
12 | NS(=O)(=O)c1cc(NC(=O)Cc2ccccc2Cl)ccc1-c1nnc(C(F)F)o1 [Example 522, 2-(2-Chlorophenyl)-N-{4-[5-(difluoromethyl)-1,3,4-oxadiazol-2-yl]-3-sulfamoylphenyl}acetamide] | 87 | 71
13 | NS(=O)(=O)c1cc(NC(=O)Cc2ccccc2Br)ccc1-n1cc(C(F)(F)F)cn1 [Example 117, 2-(2-Bromophenyl)-N-{3-sulfamoyl-4-[4-(trifluoromethyl)-1H-pyrazol-1-yl]phenyl}-acetamide] | 66 | 102
14 | NS(=O)(=O)c1cc(NC(=O)Cc2ccccc2C(F)(F)F)ccc1-c1cnn(C(F)F)c1 [Example 224, N-{4-[1-(Difluoromethyl)-1H-pyrazol-4-yl]-3-sulfamoylphenyl}-2-[2-(trifluoromethyl)-phenyl]acetamide] | 94 | 28
15 | NS(=O)(=O)c1cc(NC(=O)Cc2ccccc2Cl)ccc1-c1cccc(C(F)(F)F)n1 [Example 295, 2-(2-Chlorophenyl)-N-{3-sulfamoyl-4-[6-(trifluoromethyl)pyridin-2-yl]phenyl}acetamide] | 9 | > 25000
16 | CC(C)(C)c1ncn(-c2ccc(NC(=O)Cc3ccccc3Cl)cc2S(N)(=O)=O)n1 [Example 23, N-[4-(3-tert-Butyl-1H-1,2,4-triazol-1-yl)-3-sulfamoylphenyl]-2-(2-chlorophenyl)-acetamide] | 89 | 1180
17 | CC(C(=O)Nc1cnn(-c2ccc(NC(=O)Cc3ccccc3Cl)cc2S(N)(=O)=O)c1)C(F)(F)F (single isomer, unassigned) [Example 509, N-[1-(4-{[(2-Chlorophenyl)acetyl]amino}-2-sulfamoylphenyl)-1H-pyrazol-4-yl]-3,3,3-trifluoro-2-methylpropanamide] | 71 | 326

Next, values leading:

Row | Emax [%] | IC50 [nM] | SMILES
18 | 92 | 4630 | CC(C(=O)Nc1ccc(-n2cc(Cl)cn2)c(S(N)(=O)=O)c1)c1c(F)cccc1F (centres unmarked) [Example 106, N-[4-(4-Chloro-1H-pyrazol-1-yl)-3-sulfamoylphenyl]-2-(2,6-difluorophenyl)-propanamide]
19 | 102 | 106 | NS(=O)(=O)c1cc(NC(=O)Cc2ccccc2F)ccc1-n1cc(NCC(F)F)cn1 [Example 514, N-(4-{4-[(2,2-Difluoroethyl)amino]-1H-pyrazol-1-yl}-3-sulfamoylphenyl)-2-(2-fluorophenyl)acetamide]
20 | 88 | 226 | CCOc1ccccc1CC(=O)Nc1ccc(-n2cc(Cl)cn2)c(S(N)(=O)=O)c1 [Example 175, N-[4-(4-Chloro-1H-pyrazol-1-yl)-3-sulfamoylphenyl]-2-(2-ethoxyphenyl)acetamide]
21 | 89 | 157 | NS(=O)(=O)c1cc(NC(=O)Cc2ccccc2OC(F)(F)F)ccc1-n1cc(C(F)(F)F)cn1 [Example 129, N-{3-Sulfamoyl-4-[4-(trifluoromethyl)-1H-pyrazol-1-yl]phenyl}-2-[2-(trifluoro-methoxy)phenyl]acetamide]
22 | 73 | 3080 | NS(=O)(=O)c1cc(NC(=O)Cc2ccccc2Cl)ccc1-n1cnc(C(F)(F)F)n1 [Example 7, 2-(2-Chlorophenyl)-N-{3-sulfamoyl-4-[3-(trifluoromethyl)-1H-1,2,4-triazol-1-yl]-phenyl}acetamide]
23 | 58 | 48 | Cc1ccc(CC(=O)Nc2ccc(-n3cc(Cl)cn3)c(S(N)(=O)=O)c2)cc1 [Example 172, N-[4-(4-Chloro-1H-pyrazol-1-yl)-3-sulfamoylphenyl]-2-(4-methylphenyl)acetamide]
24 | 97 | 128 | NS(=O)(=O)c1cc(NC(=O)Cc2ccccc2Cl)ccc1-c1cncc(C(=O)N2CCCC2)c1 [Example 366, 2-(2-Chlorophenyl)-N-{4-[5-(pyrrolidin-1-ylcarbonyl)pyridin-3-yl]-3-sulfamoylphenyl}acetamide]
25 | 66 | 4700 | NS(=O)(=O)c1cc(NC(=O)Cc2ccccc2F)ccc1-n1cnc(C(F)F)n1 [Example 18, N-{4-[3-(Difluoromethyl)-1H-1,2,4-triazol-1-yl]-3-sulfamoylphenyl}-2-(2-fluoro-phenyl)acetamide]
26 | 77 | 124 | NS(=O)(=O)c1cc(NC(=O)Cc2cc(F)ccc2Cl)ccc1-n1cc(Cl)cn1 [Example 98, 2-(2-Chloro-5-fluorophenyl)-N-[4-(4-chloro-1H-pyrazol-1-yl)-3-sulfamoylphenyl]-acetamide]
27 | 35 | > 25000 | CCOC(=O)c1cnn(-c2ccc(NC(=O)Cc3ccccc3Cl)cc2S(N)(=O)=O)c1 [Example 235, Ethyl 1-(4-{[(2-chlorophenyl)acetyl]amino}-2-sulfamoylphenyl)-1H-pyrazole-4-carboxylate]
28 | 81 | 34 | NS(=O)(=O)c1cc(NC(=O)Cc2ccccc2Cl)ccc1-c1cnc(NCC(F)(F)F)nc1 [Example 315, 2-(2-Chlorophenyl)-N-(3-sulfamoyl-4-{2-[(2,2,2-trifluoroethyl)amino]pyrimidin-5-yl}phenyl)acetamide]
